# US20120245111A1, “FLAVANONES-CONTAINING FOOD COMPOSITIONS” (NESTEC S.A., priority 2009, published 2012)
# Assay: Particle size distribution of hesperidin in water by laser diffraction (Malvern Mastersizer 2000)
# Type: physicochemical
# Description: The particle size distribution is observed using a microscopy optic LEICA DMR (mode Differential Interference Contrast and polarisation). The particle size distribution is measured by laser diffraction using a Malvern Mastersizer 2000.
# The hesperidin obtainable by the heat treatment processes of the invention has a smaller size distribution compared to commercially available hesperidin as illustrated in FIG. 3.
# For variant 3 (140° C., 60 s) and variant 4 (160° C., 10 s), the cumulative distribution of particle size below 20 microns increases to 99%. Thus, it can be seen that the heat treatment has an influence on the particle size of hesperidin and on the conformation of hesperidin particles. Therefore, sedimentation is avoided.
smiles,measurement,setting,value
"COc1ccc([C@@H]2CC(=O)c3c(O)cc(O[C@@H]4O[C@H](CO[C@@H]5O[C@@H](C)[C@H](O)[C@@H](O)[C@H]5O)[C@@H](O)[C@H](O)[C@H]4O)cc3O2)cc1O [commercially available hesperidin, hesperidin]",% of cumulative distribution of hesperidin particle below 20 microns,"0.5% hesperidin in water, before or after UHT treatment",40%
same,crystal size distribution range,"commercially available hesperidin extract, crystalline form",0.1 to 160 microns
